One assay deals with Zymoseptoria tritici. Description: Leaf blotch of wheat (SEPTTR), disease control on wheat seedlings. In kind it is in vivo. To be noted: for pest or weed control at 100 ppm: high volume application at 100 ppm; for pest or weed control at 121.5 g/ha: low volume application at 121.5 g/H. On the procedure:
Technical grades of materials were dissolved in acetone, which were then mixed with nine volumes of water containing 110 ppm Triton X-100. The fungicide solutions were applied onto wheat seedlings using an automated booth sprayer to run-off. All sprayed plants were allowed to air dry prior to further handling. All fungicides were evaluated using the aforementioned method for their activity vs. all target diseases, unless stated otherwise. Wheat leaf blotch and brown rust activity were also evaluated using track spray applications, in which case the fungicides were formulated as EC formulations, containing 0.1% Trycol 5941 in the spray solutions. Wheat plants (variety Yuma) were grown from seed in a greenhouse in 50% mineral soil/50% soil-less Metro mix until the first leaf was fully emerged, with 7-10 seedlings per pot. These plants were inoculated with an aqueous spore suspension of Zymoseptoria tritici either prior to or after fungicide treatments. After inoculation the plants were kept in 100% relative humidity (one day in a dark dew chamber followed by two to three days in a lighted dew chamber at 20° C.) to permit spores to germinate and infect the leaf. The plants were then transferred to a greenhouse set at 20° C. for disease to develop. When disease symptoms were fully expressed on the 1st leaves of untreated plants, infection levels were assessed on a scale of 0 to 100 percent disease severity. Percent disease control was calculated using the ratio of disease severity on treated plants relative to untreated plants.

For a further assay, the system named is Puccinia triticina. Description: Wheat brown rust (PUCCRT), disease control on wheat seedlings. To be noted: for pest or weed control at 100 ppm: high volume application at 100 ppm; for pest or weed control at 121.5 g/ha: low volume application at 121.5 g/H. Format: in vivo. On the procedure: Technical grades of materials were dissolved in acetone, which were then mixed with nine volumes of water containing 110 ppm Triton X-100. The fungicide solutions were applied onto wheat seedlings using an automated booth sprayer to run-off. All sprayed plants were allowed to air dry prior to further handling. All fungicides were evaluated using the aforementioned method for their activity vs. all target diseases, unless stated otherwise. Wheat leaf blotch and brown rust activity were also evaluated using track spray applications, in which case the fungicides were formulated as EC formulations, containing 0.1% Trycol 5941 in the spray solutions. Wheat plants (variety Yuma) were grown from seed in a greenhouse in 50% mineral soil/50% soil-less Metro mix until the first leaf was fully emerged, with 7-10 seedlings per pot. These plants were inoculated with an aqueous spore suspension of Puccinia triticina either prior to or after fungicide treatments. After inoculation the plants were kept in a dark dew room at 22° C. with 100% relative humidity overnight to permit spores to germinate and infect the leaf. The plants were then transferred to a greenhouse set at 24° C. for disease to develop. Fungicide formulation, application and disease assessment followed the procedures as described in the Example A.

Setting [1] is: 24 h, 1 Day Protectant, read-out: SEPTTR disease control, 1DP, HV activity.
Setting [2] is: 72 h, 3 Day Curative, read-out: SEPTTR disease control, 3DC, HV activity.
Where [3] appears, read: 24 h, 1 Day Protectant, read-out: PUCCRT disease control, 1DP, HV activity.
Setting [4] is: 72 h, 3 Day Curative, read-out: PUCCRT disease control, 3DC, HV activity.
Setting [5] is: 24 h, 1 Day Protectant, read-out: SEPTTR disease control, 1DP, LV activity.
Setting [6] is: 72 h, 3 Day Curative, read-out: SEPTTR disease control, 3DC, LV activity.
The mark [7] stands for this setting: 24 h, 1 Day Protectant, read-out: PUCCRT disease control, 1DP, LV activity.
The mark [8] stands for this setting: 72 h, 3 Day Curative, read-out: PUCCRT disease control, 3DC, LV activity.
[9] abbreviates: 24 h, 1 Day Protectant, wheat leaf blotch, read-out: SEPTTR 1DP disease control, LV activity.
The mark [10] stands for this setting: 72 h, 3 Day Curative, wheat leaf blotch, read-out: SEPTTR 3DC disease control, LV activity.
Where [11] appears, read: 24 h, 1 Day Protectant, wheat brown rust, read-out: PUCCRT 1DP disease control, LV activity.
The mark [12] stands for this setting: 72 h, 3 Day Curative, wheat brown rust, read-out: PUCCRT 3DC disease control, LV activity.

Like-named read-outs stand apart in the source and are kept apart here.

Consider `COc1ccnc(C(=O)N[C@@H](C)C(=O)O[C@@H](C)[C@H](c2ccc(OC(F)(F)F)cc2)C(C)C)c1O` [Compound 335], for which the pest or weed control at 100 ppm with Zymoseptoria tritici (setting [1]) was greater than 80%; in the assay with Zymoseptoria tritici (setting [2]) it was less than 80%; in the assay with Puccinia triticina (setting [3]) it was greater than 80%; in the assay with Puccinia triticina (setting [4]) it was greater than 80%.
Turning to `COc1ccnc(C(=O)N[C@@H](C)C(=O)O[C@@H](C)[C@H](c2ccc(F)cc2C)C2CCCCC2)c1O` [Compound 123], the pest or weed control at 100 ppm with Zymoseptoria tritici (setting [1]), in the assay on Zymoseptoria tritici (setting [2]), in the assay on Puccinia triticina (setting [3]) and with Puccinia triticina (setting [4]) was greater than 80% throughout.
In the case of `COc1ccccc1[C@H](C(C)C)[C@H](C)OC(=O)[C@H](C)NC(=O)c1nccc(OC)c1OCOC(C)=O` [Compound 263], the pest or weed control at 121.5 g/ha in the assay on Zymoseptoria tritici (setting [5]) was less than 80%; in the assay on Zymoseptoria tritici (setting [6]), greater than 80%; with Puccinia triticina (setting [7]), greater than 80%; in the assay with Puccinia triticina (setting [8]), greater than 80%.
As to `COc1cc(F)ccc1[C@H](C(C)C)[C@H](C)OC(=O)[C@H](C)NC(=O)c1nccc(OC)c1O` [Compound 148], the pest or weed control at 100 ppm is less than 0% in the assay with Zymoseptoria tritici (setting [1]), less than 80% in the assay on Zymoseptoria tritici (setting [2]), less than 80% in the assay on Puccinia triticina (setting [3]) and greater than 80% in the assay with Puccinia triticina (setting [4]).
Consider `COc1ccnc(C(=O)N[C@@H](C)C(=O)O[C@@H](C)[C@H](c2ccccc2)C(C)C)c1OC(C)=O` [Compound 165], for which the pest or weed control at 121.5 g/ha in the assay with Zymoseptoria tritici (setting [5]), in the assay with Zymoseptoria tritici (setting [6]), in the assay on Puccinia triticina (setting [7]) and in the assay on Puccinia triticina (setting [8]) was greater than 80% in each case.
For `COc1ccnc(C(=O)N[C@@H](C)C(=O)O[C@@H](C)[C@H](c2ccc(C)cc2)C(C)C)c1OCOC(C)=O` [Compound 255], the pest or weed control at 121.5 g/ha was less than 80% with Zymoseptoria tritici (setting [5]), greater than 80% in the assay on Puccinia triticina (setting [7]) and greater than 80% in the assay with Puccinia triticina (setting [8]).
On to `COc1ccnc(C(=O)N[C@@H](C)C(=O)O[C@@H](C)[C@H](c2cc(F)ccc2F)C(C)C)c1OC(C)=O` [Compound 392], for which the pest or weed control at 121.5 g/ha was less than 80% in the assay with Zymoseptoria tritici (setting [9]), greater than 80% in the assay on Zymoseptoria tritici (setting [10]), greater than 80% with Puccinia triticina (setting [11]) and greater than 80% in the assay on Puccinia triticina (setting [12]).
Consider `COc1ccnc(C(=O)N[C@@H](C)C(=O)O[C@@H](C)[C@@H](c2ccc(F)cc2C)C2CCCC2)c1O` [Compound 118], for which the pest or weed control at 100 ppm is less than 80% with Zymoseptoria tritici (setting [1]), less than 80% in the assay on Zymoseptoria tritici (setting [2]), greater than 80% in the assay on Puccinia triticina (setting [3]) and less than 80% in the assay with Puccinia triticina (setting [4]).
As for `COc1ccnc(C(=O)N[C@@H](C)C(=O)O[C@@H](C)[C@H](c2ccccc2OC(C)C)C(C)C)c1O` [Compound 337], the pest or weed control at 100 ppm in the assay on Zymoseptoria tritici (setting [1]) is less than 80%; in the assay with Zymoseptoria tritici (setting [2]), less than 0%; with Puccinia triticina (setting [3]), greater than 80%; with Puccinia triticina (setting [4]), greater than 80%.
Take `COc1ccnc(C(=O)N[C@@H](C)C(=O)O[C@@H](C)[C@H](c2ccc(F)cc2C)C2CCCC2)c1O` [Compound 122]: the pest or weed control at 100 ppm in the assay with Zymoseptoria tritici (setting [1]) is greater than 80%; in the assay on Zymoseptoria tritici (setting [2]), less than 80%; with Puccinia triticina (setting [3]), greater than 80%; in the assay on Puccinia triticina (setting [4]), greater than 80%.
Take `COc1ccnc(C(=O)N[C@@H](C)C(=O)O[C@@H](C)[C@H](c2c(F)cc(F)cc2F)C(C)C)c1O` [Compound 341]: the pest or weed control at 100 ppm with Zymoseptoria tritici (setting [1]), in the assay with Zymoseptoria tritici (setting [2]), in the assay with Puccinia triticina (setting [3]) and with Puccinia triticina (setting [4]) was greater than 80% in each case.
Regarding `COc1ccnc(C(=O)N[C@@H](C)C(=O)OC(C)C(c2ccc(F)cc2)C(C)C)c1OC(C)=O` (stereo partly drawn) [Compound 169], the pest or weed control at 121.5 g/ha in the assay on Zymoseptoria tritici (setting [5]) is less than 80%; with Zymoseptoria tritici (setting [6]), greater than 80%; in the assay with Puccinia triticina (setting [7]), greater than 80%; in the assay with Puccinia triticina (setting [8]) it was greater than 80%.
`COc1ccnc(C(=O)N[C@@H](C)C(=O)O[C@@H](C)[C@H](c2c(F)cccc2Cl)C(C)C)c1O` [Compound 343]: the pest or weed control at 100 ppm with Zymoseptoria tritici (setting [1]), in the assay with Zymoseptoria tritici (setting [2]), in the assay with Puccinia triticina (setting [3]) and in the assay with Puccinia triticina (setting [4]) was greater than 80% in each case.
For the compound `COCCC(=O)Oc1c(OC)ccnc1C(=O)N[C@@H](C)C(=O)O[C@@H](C)[C@H](c1ccc(C)cc1)C(C)C` [Compound 245], the pest or weed control at 121.5 g/ha with Zymoseptoria tritici (setting [5]) was less than 80%; with Puccinia triticina (setting [7]), greater than 80%; in the assay on Puccinia triticina (setting [8]) it was greater than 80%.
On to `COc1ccnc(C(=O)N[C@@H](C)C(=O)O[C@@H](C)[C@H](c2ccc(F)c(C)c2)C(C)C)c1OC(C)=O` [Compound 250], for which the pest or weed control at 121.5 g/ha with Zymoseptoria tritici (setting [5]), with Puccinia triticina (setting [7]) and with Puccinia triticina (setting [8]) was greater than 80% each time.
For the compound `CC[C@H](C)[C@H](NC(=O)c1nccc(OC)c1O)C(=O)O[C@@H](C)[C@H](c1ccc(F)cc1C)C(C)C` [Compound 319], the pest or weed control at 100 ppm in the assay on Zymoseptoria tritici (setting [1]), in the assay on Zymoseptoria tritici (setting [2]), in the assay with Puccinia triticina (setting [3]) and in the assay on Puccinia triticina (setting [4]) was less than 80% in each case.
For the compound `COc1ccnc(C(=O)N[C@@H](C)C(=O)O[C@@H](C)[C@H](c2cccc(F)c2C)C(C)C)c1O` [Compound 322], the pest or weed control at 100 ppm was less than 80% in the assay with Zymoseptoria tritici (setting [1]), less than 80% with Zymoseptoria tritici (setting [2]), greater than 80% in the assay on Puccinia triticina (setting [3]) and greater than 80% in the assay on Puccinia triticina (setting [4]).
For `COc1cc(F)ccc1[C@@H](C(C)C)[C@H](C)OC(=O)[C@H](C)NC(=O)c1nccc(OC)c1O` [Compound 138], the pest or weed control at 100 ppm in the assay on Zymoseptoria tritici (setting [1]) was less than 0%; in the assay on Zymoseptoria tritici (setting [2]), less than 0%; in the assay on Puccinia triticina (setting [3]) it was greater than 80%; in the assay with Puccinia triticina (setting [4]) it was greater than 80%.
As for `CCC(CC)[C@@H](c1ccccc1C)[C@H](C)OC(=O)[C@H](C)NC(=O)c1nccc(OC)c1OC(=O)C(C)C` [Compound 387], the pest or weed control at 121.5 g/ha in the assay with Zymoseptoria tritici (setting [9]) is less than 80%; in the assay with Zymoseptoria tritici (setting [10]) it was greater than 80%; in the assay on Puccinia triticina (setting [11]) it was greater than 80%; with Puccinia triticina (setting [12]), less than 80%.
With `COc1ccc([C@H](C(C)C)[C@H](C)OC(=O)[C@H](C)NC(=O)c2nccc(OC)c2OC(C)=O)c(F)c1` [Compound 251], the pest or weed control at 121.5 g/ha in the assay on Zymoseptoria tritici (setting [5]) is less than 80%; in the assay with Puccinia triticina (setting [7]) it was greater than 80%; with Puccinia triticina (setting [8]), greater than 80%.
On to `COc1ccnc(C(=O)N[C@@H](C)C(=O)O[C@@H](C)[C@H](c2ccc(Cl)cc2F)C(C)C)c1OC(C)=O` [Compound 389], for which the pest or weed control at 121.5 g/ha with Zymoseptoria tritici (setting [9]), in the assay with Zymoseptoria tritici (setting [10]), in the assay on Puccinia triticina (setting [11]) and in the assay with Puccinia triticina (setting [12]) was greater than 80% each time.
On to `COc1ccc([C@H](C(C)C)[C@H](C)OC(=O)[C@H](C)NC(=O)c2nccc(OC)c2OC(C)=O)cc1F` [Compound 252], for which the values for the pest or weed control at 121.5 g/ha in the assay on Zymoseptoria tritici (setting [5]), with Puccinia triticina (setting [7]) and in the assay on Puccinia triticina (setting [8]) were less than 80%, greater than 80% and less than 80%, respectively.
Consider `COc1ccnc(C(=O)N[C@@H](C)C(=O)OC(C)[C@H](c2ccccc2)C2CCCC2)c1OC(C)=O` (stereo partly drawn) [Compound 173], for which the pest or weed control at 121.5 g/ha with Zymoseptoria tritici (setting [5]) is greater than 80%; in the assay with Zymoseptoria tritici (setting [6]), greater than 80%; in the assay on Puccinia triticina (setting [7]), greater than 80%; with Puccinia triticina (setting [8]) it was less than 80%.

For the origin of these results see patent publication US20180186742A1, “PICOLINAMIDES AS FUNGICIDES” (Dow AgroSciences LLC, priority 2017, published 2018).
